Test results as given in patent US8129417B2, “Substituted octahydrocyclopenta[C]pyrrol-4-amines as calcium channel blockers” (Abbott Laboratories, priority 2008, dated 2012).
pIC50: −log10 of the molar value.

The molecules below were run against human Cav2.2 (Homo sapiens, UniProt Q00975) (assay: Assessment of calcium channel activity using FLIPR (Ca2+ influx in IMR32 cells)). Conditions: 60 minute pre-incubation with compound, 2 μM nifedipine, depolarized with 80 mM KCl.
Sequence of human Cav2.2 (Q00975 whole entry): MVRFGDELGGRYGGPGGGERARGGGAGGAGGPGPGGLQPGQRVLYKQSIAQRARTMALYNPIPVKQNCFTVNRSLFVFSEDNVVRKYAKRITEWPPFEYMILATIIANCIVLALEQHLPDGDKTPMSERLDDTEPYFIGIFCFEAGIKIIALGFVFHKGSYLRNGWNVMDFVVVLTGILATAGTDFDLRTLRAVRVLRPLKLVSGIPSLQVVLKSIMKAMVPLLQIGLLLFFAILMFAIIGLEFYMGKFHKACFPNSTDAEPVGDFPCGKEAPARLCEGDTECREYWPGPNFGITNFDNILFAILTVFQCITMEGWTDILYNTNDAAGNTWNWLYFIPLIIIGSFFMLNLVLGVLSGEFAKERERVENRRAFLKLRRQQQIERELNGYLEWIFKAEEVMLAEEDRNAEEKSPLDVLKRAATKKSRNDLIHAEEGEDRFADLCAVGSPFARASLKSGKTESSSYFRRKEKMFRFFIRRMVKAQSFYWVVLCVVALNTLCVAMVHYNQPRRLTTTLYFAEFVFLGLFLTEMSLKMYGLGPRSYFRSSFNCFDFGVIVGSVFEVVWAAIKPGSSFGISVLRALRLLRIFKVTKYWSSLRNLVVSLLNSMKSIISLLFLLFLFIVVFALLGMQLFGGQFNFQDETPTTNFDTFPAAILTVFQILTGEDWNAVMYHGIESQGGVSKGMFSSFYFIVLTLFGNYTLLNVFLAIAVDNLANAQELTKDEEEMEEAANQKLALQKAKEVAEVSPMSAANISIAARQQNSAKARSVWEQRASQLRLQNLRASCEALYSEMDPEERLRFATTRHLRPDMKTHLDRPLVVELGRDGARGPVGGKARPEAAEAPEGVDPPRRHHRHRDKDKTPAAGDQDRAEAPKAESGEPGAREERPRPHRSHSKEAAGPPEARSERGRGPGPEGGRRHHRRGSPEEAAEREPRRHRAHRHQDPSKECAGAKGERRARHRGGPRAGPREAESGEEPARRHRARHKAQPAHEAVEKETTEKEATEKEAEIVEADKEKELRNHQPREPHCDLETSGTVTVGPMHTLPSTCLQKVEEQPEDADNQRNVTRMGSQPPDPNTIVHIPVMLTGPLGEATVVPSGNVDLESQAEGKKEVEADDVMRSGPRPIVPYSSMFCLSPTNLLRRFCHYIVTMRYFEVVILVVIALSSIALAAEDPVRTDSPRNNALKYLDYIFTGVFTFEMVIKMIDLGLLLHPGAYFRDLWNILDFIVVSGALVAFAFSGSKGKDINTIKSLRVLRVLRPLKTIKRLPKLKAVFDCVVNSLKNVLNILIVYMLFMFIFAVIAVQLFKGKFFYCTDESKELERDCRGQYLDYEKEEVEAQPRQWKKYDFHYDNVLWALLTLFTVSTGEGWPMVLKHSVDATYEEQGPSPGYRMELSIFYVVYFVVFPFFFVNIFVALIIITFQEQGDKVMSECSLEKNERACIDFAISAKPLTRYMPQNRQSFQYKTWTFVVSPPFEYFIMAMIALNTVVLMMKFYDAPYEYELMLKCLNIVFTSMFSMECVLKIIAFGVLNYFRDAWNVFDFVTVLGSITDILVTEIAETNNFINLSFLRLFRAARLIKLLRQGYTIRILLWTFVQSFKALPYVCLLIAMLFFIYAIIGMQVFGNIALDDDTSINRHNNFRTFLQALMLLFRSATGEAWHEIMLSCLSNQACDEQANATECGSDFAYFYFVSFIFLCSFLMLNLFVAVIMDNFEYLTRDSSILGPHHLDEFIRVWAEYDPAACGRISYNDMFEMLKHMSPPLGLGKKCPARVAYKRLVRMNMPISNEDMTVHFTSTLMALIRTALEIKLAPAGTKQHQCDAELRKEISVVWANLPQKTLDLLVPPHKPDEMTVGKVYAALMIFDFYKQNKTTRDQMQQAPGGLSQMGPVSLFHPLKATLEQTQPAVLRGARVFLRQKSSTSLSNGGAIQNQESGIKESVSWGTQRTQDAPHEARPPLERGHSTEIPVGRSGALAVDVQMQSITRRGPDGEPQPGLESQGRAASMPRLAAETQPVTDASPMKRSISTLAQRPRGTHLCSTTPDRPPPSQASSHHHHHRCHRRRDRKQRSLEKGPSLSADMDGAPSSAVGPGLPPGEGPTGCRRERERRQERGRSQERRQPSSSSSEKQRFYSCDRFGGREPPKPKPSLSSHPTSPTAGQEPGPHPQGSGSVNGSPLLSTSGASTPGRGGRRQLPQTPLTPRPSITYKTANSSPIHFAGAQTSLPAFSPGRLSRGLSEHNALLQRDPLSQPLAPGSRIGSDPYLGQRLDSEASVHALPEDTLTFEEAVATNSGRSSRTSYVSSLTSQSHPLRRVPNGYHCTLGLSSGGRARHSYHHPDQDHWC
Sequence of human Cav2.2 (P54289 25-946 partner limits assumed): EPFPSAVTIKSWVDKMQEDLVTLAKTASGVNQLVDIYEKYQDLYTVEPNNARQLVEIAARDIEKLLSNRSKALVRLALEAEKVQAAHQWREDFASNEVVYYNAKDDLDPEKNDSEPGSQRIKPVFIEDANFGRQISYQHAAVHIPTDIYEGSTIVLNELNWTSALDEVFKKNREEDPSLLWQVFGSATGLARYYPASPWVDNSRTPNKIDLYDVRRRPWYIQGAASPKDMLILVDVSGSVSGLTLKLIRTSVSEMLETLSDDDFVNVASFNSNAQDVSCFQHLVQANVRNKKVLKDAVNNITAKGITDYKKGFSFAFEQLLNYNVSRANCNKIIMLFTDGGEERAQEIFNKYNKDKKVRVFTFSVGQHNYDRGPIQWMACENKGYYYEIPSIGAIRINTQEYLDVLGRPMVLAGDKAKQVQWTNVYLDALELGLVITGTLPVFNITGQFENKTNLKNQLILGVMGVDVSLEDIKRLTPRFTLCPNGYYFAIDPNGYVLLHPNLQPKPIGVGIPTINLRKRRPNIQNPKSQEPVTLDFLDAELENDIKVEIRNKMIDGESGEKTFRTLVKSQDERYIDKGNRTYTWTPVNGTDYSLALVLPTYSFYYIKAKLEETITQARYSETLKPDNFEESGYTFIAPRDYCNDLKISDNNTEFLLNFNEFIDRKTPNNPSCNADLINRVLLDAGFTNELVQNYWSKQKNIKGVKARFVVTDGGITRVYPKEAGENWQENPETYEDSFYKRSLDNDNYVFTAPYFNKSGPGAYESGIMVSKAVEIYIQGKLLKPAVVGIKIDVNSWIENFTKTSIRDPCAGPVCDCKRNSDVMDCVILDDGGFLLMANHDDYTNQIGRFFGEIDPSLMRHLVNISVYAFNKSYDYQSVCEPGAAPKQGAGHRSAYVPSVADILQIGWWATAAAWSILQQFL
Sequence of human Cav2.2 (P54289 947-1103 partner limits assumed): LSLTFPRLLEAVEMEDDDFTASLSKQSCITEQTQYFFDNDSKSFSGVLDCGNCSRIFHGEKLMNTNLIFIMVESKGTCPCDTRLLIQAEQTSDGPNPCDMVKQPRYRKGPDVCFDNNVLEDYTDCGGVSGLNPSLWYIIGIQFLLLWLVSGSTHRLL
Sequence of human Cav2.2 (P54284 whole entry partner): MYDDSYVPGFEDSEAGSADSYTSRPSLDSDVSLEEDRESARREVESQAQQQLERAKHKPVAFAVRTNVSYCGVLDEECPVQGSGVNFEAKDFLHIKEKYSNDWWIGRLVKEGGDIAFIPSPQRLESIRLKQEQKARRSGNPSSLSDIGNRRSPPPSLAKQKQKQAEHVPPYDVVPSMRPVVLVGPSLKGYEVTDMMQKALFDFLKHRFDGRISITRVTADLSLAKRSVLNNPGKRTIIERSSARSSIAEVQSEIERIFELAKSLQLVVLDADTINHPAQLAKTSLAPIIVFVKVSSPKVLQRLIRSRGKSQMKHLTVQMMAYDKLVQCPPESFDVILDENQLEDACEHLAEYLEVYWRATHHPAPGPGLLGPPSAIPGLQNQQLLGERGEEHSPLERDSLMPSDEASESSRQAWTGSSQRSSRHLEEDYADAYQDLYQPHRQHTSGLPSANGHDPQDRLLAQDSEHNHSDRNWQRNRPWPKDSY
Assay type: cell-based
How it was run: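 IC50 came from sigmoidal non-linear regression of percent inhibition, relative to uninhibited activity, across compound concentrations. Calcium influx was measured by FLIPR in IMR32 cells plated at 1-1.2×10^5 cells/well and cultured 48 h at 37 °C.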
`CCN(C(=O)OC(C)(C)C)[C@@H](CC(C)C)C(=O)N[C@H]1CC[C@@H]2CN(Cc3cccc(C(F)(F)F)c3)C[C@@H]21` [Example 310, tert-butyl ethyl((S)-4-methyl-1-oxo-1-((3aR,4S,6aS)-2-(3-(trifluoromethyl)benzyl)octahydrocyclopenta[c]pyrrol-4-ylamino)pentan-2-yl)carbamate] showed a pIC50 of 6.17.
`CCC[C@@H](C(=O)N[C@H]1CC[C@@H]2CN(Cc3cccc(C(F)(F)F)c3)C[C@@H]21)N(C)C(=O)OC(C)(C)C` [Example 313, tert-butyl methyl((S)-1-oxo-1-((3aR,4S,6aS)-2-(3-(trifluoromethyl)benzyl)octahydrocyclopenta[c]pyrrol-4-ylamino)pentan-2-yl)carbamate] was tested, and the pIC50 was 5.68.
In the case of `CCC[C@@H](C(=O)N[C@H]1CC[C@@H]2CN(Cc3ccc(C(F)(F)F)cc3)C[C@@H]21)N(C)C(=O)OC(C)(C)C` [Example 314, tert-butyl methyl((S)-1-oxo-1-((3aR,4S,6aS)-2-(4-(trifluoromethyl)benzyl)octahydrocyclopenta[c]pyrrol-4-ylamino)pentan-2-yl)carbamate], the pIC50 was 5.67.
Work on `CCC[C@@H](C(=O)N[C@@H]1CC[C@H]2CN(Cc3ccc(C(F)(F)F)cc3)C[C@H]21)N(C)C(=O)OC(C)(C)C` [Example 317, tert-butyl methyl((S)-1-oxo-1-((3aS,4R,6aR)-2-(4-(trifluoromethyl)benzyl)octahydrocyclopenta[c]pyrrol-4-ylamino)pentan-2-yl)carbamate] yielded a pIC50 of 6.05.
Work on `CC(C)C[C@@H](C(=O)N[C@@H]1CC[C@H]2CN(S(=O)(=O)c3cccc(C(F)(F)F)c3)C[C@H]21)N1CCOCC1` [Example 319, (2S)-4-methyl-2-morpholin-4-yl-N-((3aS,4R,6aR)-2-{[3-(trifluoromethyl)phenyl]sulfonyl}octahydrocyclopenta[c]pyrrol-4-yl)pentanamide] yielded a pIC50 of 5.92.
`CC(C)C[C@@H](C(=O)N[C@@H]1CC[C@H]2CN(S(=O)(=O)c3cccc(C(F)(F)F)c3)C[C@H]21)N1CCCC1` [Example 320, (2S)-4-methyl-2-pyrrolidin-1-yl-N-((3aS,4R,6aR)-2-{[3-(trifluoromethyl)phenyl]sulfonyl}octahydrocyclopenta[c]pyrrol-4-yl)pentanamide] showed a pIC50 of 6.15.
`CC(C)C[C@@H](C(=O)N[C@@H]1CC[C@H]2CN(S(=O)(=O)c3cccc(C(F)(F)F)c3)C[C@H]21)N1CCCCC1` [Example 321, (2S)-4-methyl-2-piperidin-1-yl-N-((3aS,4R,6aR)-2-{[3-(trifluoromethyl)phenyl]sulfonyl}octahydrocyclopenta[c]pyrrol-4-yl)pentanamide] gave a pIC50 of 6.36.
`CC(C)C[C@@H](C(=O)N[C@H]1CC[C@@H]2CN(S(=O)(=O)c3cccc(C(F)(F)F)c3)C[C@@H]21)N(C)C(=O)OC(C)(C)C` [Example 322, tert-butyl methyl((S)-4-methyl-1-oxo-1-((3aR,4S,6aS)-2-(3-(trifluoromethyl)phenylsulfonyl)octahydrocyclopenta[c]pyrrol-4-ylamino)pentan-2-yl)carbamate] was tested, and the pIC50 was 6.15.
In the case of `CCN(C(=O)OC(C)(C)C)[C@@H](CC(C)C)C(=O)N[C@H]1CC[C@@H]2CN(S(=O)(=O)c3cccc(C(F)(F)F)c3)C[C@@H]21` [Example 323, tert-butyl ethyl((S)-4-methyl-1-oxo-1-((3aR,4S,6aS)-2-(3-(trifluoromethyl)phenylsulfonyl)octahydrocyclopenta[c]pyrrol-4-ylamino)pentan-2-yl)carbamate], the pIC50 was 6.70.
Molecule `CC(C)C[C@@H](C(=O)N[C@@H]1CC[C@H]2CN(S(=O)(=O)c3ccc(C(F)(F)F)cc3)C[C@H]21)N(C)C(=O)OC(C)(C)C` [Example 324, tert-butyl methyl((S)-4-methyl-1-oxo-1-((3aS,4R,6aR)-2-(4-(trifluoromethyl)phenylsulfonyl)octahydrocyclopenta[c]pyrrol-4-ylamino)pentan-2-yl)carbamate] has a pIC50 of 6.16.
Work on `CC(C)C[C@@H](C(=O)N[C@@H]1CC[C@H]2CN(S(=O)(=O)c3cccc(C(F)(F)F)c3)C[C@H]21)N(C)C(=O)OC(C)(C)C` [Example 325, tert-butyl methyl((S)-4-methyl-1-oxo-1-((3aS,4R,6aR)-2-(3-(trifluoromethyl)phenylsulfonyl)octahydrocyclopenta[c]pyrrol-4-ylamino)pentan-2-yl)carbamate] yielded a pIC50 of 6.60.
Molecule `CC(C)C[C@@H](C(=O)N[C@@H]1CC[C@H]2CN(S(=O)(=O)c3ccc(F)cc3)C[C@H]21)N(C)C(=O)OC(C)(C)C` [Example 326, tert-butyl(S)-1-((3aS,4R,6aR)-2-(4-fluorophenylsulfonyl)octahydrocyclopenta[c]pyrrol-4-ylamino)-4-methyl-1-oxopentan-2-yl(methyl)carbamate] has a pIC50 of 5.84.
Molecule `CC(C)C[C@@H](C(=O)N[C@@H]1CC[C@H]2CN(S(=O)(=O)c3ccc(F)c(C(F)(F)F)c3)C[C@H]21)N(C)C(=O)OC(C)(C)C` [Example 327, tert-butyl(S)-1-((3aS,4R,6aR)-2-(4-fluoro-3-(trifluoromethyl)phenylsulfonyl)octahydrocyclopenta[c]pyrrol-4-ylamino)-4-methyl-1-oxopentan-2-yl(methyl)carbamate] has a pIC50 of 5.74.
For `CC(C)C[C@@H](C(=O)N[C@@H]1CC[C@@H]2CN(S(=O)(=O)c3ccc(C(F)(F)F)cc3)C[C@@H]21)N(C)C(=O)OC(C)(C)C` [Example 329, tert-butyl methyl((S)-4-methyl-1-oxo-1-((3aR,4R,6aS)-2-(4-(trifluoromethyl)phenylsulfonyl)octahydrocyclopenta[c]pyrrol-4-ylamino)pentan-2-yl)carbamate], the pIC50 was 5.59.
`CCC[C@@H](C(=O)N[C@@H]1CC[C@H]2CN(S(=O)(=O)c3ccc(F)cc3)C[C@H]21)N(C)C(=O)OC(C)(C)C` [Example 330, tert-butyl(S)-1-((3aS,4R,6aR)-2-(4-fluorophenylsulfonyl)octahydrocyclopenta[c]pyrrol-4-ylamino)-1-oxopentan-2-yl(methyl)carbamate] gave a pIC50 of 5.95.
`CCC[C@@H](C(=O)N[C@@H]1CC[C@H]2CN(S(=O)(=O)c3ccc(C(F)(F)F)cc3)C[C@H]21)N(C)C(=O)OC(C)(C)C` [Example 331, tert-butyl methyl((S)-1-oxo-1-((3aS,4R,6aR)-2-(4-(trifluoromethyl)phenylsulfonyl)octahydrocyclopenta[c]pyrrol-4-ylamino)pentan-2-yl)carbamate] gave a pIC50 of 6.12.
Work on `CC[C@H](C)[C@@H](C(=O)N[C@H]1CC[C@@H]2CN(S(=O)(=O)c3cccc(C(F)(F)F)c3)C[C@@H]21)N(C)C(=O)OC(C)(C)C` [Example 332, tert-butyl methyl((2S,3S)-3-methyl-1-oxo-1-((3aR,4S,6aS)-2-(3-(trifluoromethyl)phenylsulfonyl)octahydrocyclopenta[c]pyrrol-4-ylamino)pentan-2-yl)carbamate] yielded a pIC50 of 6.32.
With `CC[C@H](C)[C@@H](C(=O)N[C@H]1CC[C@@H]2CN(S(=O)(=O)c3ccc(C(F)(F)F)cc3)C[C@@H]21)N(C)C(=O)OC(C)(C)C` [Example 333, tert-butyl methyl((2S,3S)-3-methyl-1-oxo-1-((3aR,4S,6aS)-2-(4-(trifluoromethyl)phenylsulfonyl)octahydrocyclopenta[c]pyrrol-4-ylamino)pentan-2-yl)carbamate] the pIC50 was 6.24.
`CC[C@H](C)[C@@H](C(=O)N[C@@H]1CC[C@H]2CN(S(=O)(=O)c3cccc(C(F)(F)F)c3)C[C@H]21)N(C)C(=O)OC(C)(C)C` [Example 334, tert-butyl methyl((2S,3S)-3-methyl-1-oxo-1-((3aS,4R,6aR)-2-(3-(trifluoromethyl)phenylsulfonyl)octahydrocyclopenta[c]pyrrol-4-ylamino)pentan-2-yl)carbamate] showed a pIC50 of 6.16.
Work on `CC[C@H](C)[C@@H](C(=O)N[C@@H]1CC[C@H]2CN(S(=O)(=O)c3ccc(C(F)(F)F)cc3)C[C@H]21)N(C)C(=O)OC(C)(C)C` [Example 335, tert-butyl methyl((2S,3S)-3-methyl-1-oxo-1-((3aS,4R,6aR)-2-(4-(trifluoromethyl)phenylsulfonyl)octahydrocyclopenta[c]pyrrol-4-ylamino)pentan-2-yl)carbamate] yielded a pIC50 of 6.08.
`CN(C(=O)OC(C)(C)C)[C@@H](CC(C)(C)C)C(=O)N[C@H]1CC[C@@H]2CN(S(=O)(=O)c3cccc(C(F)(F)F)c3)C[C@@H]21` [Example 336, tert-butyl(S)-4,4-dimethyl-1-oxo-1-((3aR,4S,6aS)-2-(3-(trifluoromethyl)phenylsulfonyl)octahydrocyclopenta[c]pyrrol-4-ylamino)pentan-2-yl(methyl)carbamate] showed a pIC50 of 6.32.
In the case of `CN(C(=O)OC(C)(C)C)[C@@H](CC(C)(C)C)C(=O)N[C@H]1CC[C@@H]2CN(S(=O)(=O)c3ccc(C(F)(F)F)cc3)C[C@@H]21` [Example 337, tert-butyl(S)-4,4-dimethyl-1-oxo-1-((3aR,4S,6aS)-2-(4-(trifluoromethyl)phenylsulfonyl)octahydrocyclopenta[c]pyrrol-4-ylamino)pentan-2-yl(methyl)carbamate], the pIC50 was 6.11.
Molecule `CN(C(=O)OC(C)(C)C)[C@@H](CC(C)(C)C)C(=O)N[C@@H]1CC[C@H]2CN(S(=O)(=O)c3cccc(C(F)(F)F)c3)C[C@H]21` [Example 338, tert-butyl(S)-4,4-dimethyl-1-oxo-1-((3aS,4R,6aR)-2-(3-(trifluoromethyl)phenylsulfonyl)octahydrocyclopenta[c]pyrrol-4-ylamino)pentan-2-yl(methyl)carbamate] has a pIC50 of 6.64.
Work on `CN(C(=O)OC(C)(C)C)[C@@H](CC(C)(C)C)C(=O)N[C@@H]1CC[C@H]2CN(S(=O)(=O)c3ccc(C(F)(F)F)cc3)C[C@H]21` [Example 339, tert-butyl(S)-4,4-dimethyl-1-oxo-1-((3aS,4R,6aR)-2-(4-(trifluoromethyl)phenylsulfonyl)octahydrocyclopenta[c]pyrrol-4-ylamino)pentan-2-yl(methyl)carbamate] yielded a pIC50 of 5.95.
In the case of `CC(C)[C@@H](C(=O)N[C@@H]1CC[C@H]2CN(S(=O)(=O)c3cccc(C(F)(F)F)c3)C[C@H]21)N(C)C(=O)OC(C)(C)C` [Example 340, tert-butyl methyl((S)-3-methyl-1-oxo-1-((3aS,4R,6aR)-2-(3-(trifluoromethyl)phenylsulfonyl)octahydrocyclopenta[c]pyrrol-4-ylamino)butan-2-yl)carbamate], the pIC50 was 5.99.
